Read-outs that look alike come from different tables or passages of the source.
Legend:
[1] = test system: 4T1 murine breast cancer; test: 4T1 orthotopic breast cancer efficacy study; format: in vivo; conditions: 4T1 in Balb/c mice; CBI prodrugs 3 mg/kg
Source text: We then moved to in vivo anticancer efficacy trials of these prodrugs. […] As one model we chose the syngeneic murine breast cancer 4T1, implanted orthotopically (at the native tissue site) into the fat pad of immunocompetent Balb/c mice (i.e., offering a realistic immune system and tumor microenvironment). This model gives rapid, aggressive tumor growth.[52] As a second model, we chose to xenograft human BxPC-3 pancreatic adenocarcinoma cells into immunodeficient hosts. This is a slower-growing model, with low metastasis, that can be more resistant to traditional antimitotic therapy.[53],[54] Mice were implanted, randomized once tumors reached 100–150 mm^3 volume, and treated once or twice weekly with prodrug or control compounds typically at 3 mg/kg (8–12 animals per condition, Figure 10a). Tumors were measured by caliper during the assay and weighed at termination.
7. 2. in vivo efficacy mouse studies
4T1 efficacy study BxPC-3 efficacy study a Absolute tumour volumes b Absolute tumour volumes […]
days after tumor implantation days after tumor implantation c Relative tumour volumes d Relative tumour volumes […]
e RTV! fi"al day of followu# f ex viv tumour weights g RTV! fi"al day of followu# h ex viv tumour weights (. mice remain in all *roups) (for animals left at day 31)(all *roups have statistical power)(day "2/ all animals left) […]
vehicle(1x)(1x)(1x) (2x)(2x) […]
P-##"0-#$%-&'%P-!!"0-#$%-&'%P-!!"0-#$%-()%P-!!"0-#$%-&'% %rinotecan %rinotecan P-##"0-#$%-&'%P-!!"0-#$%-()%P-!!"0-#$%-&'%P-!!"0-#$%-&'% P-!!"0-#$%-&'% P-!!"0-#$%-&'% […]
i Body weights $ Body weights […]
implant in Balb/c mice, 8 mice per group; (b, d,g,h,j): BxPC-3 subcutaneous xenograft in NMRi mice, 8 mice per […]
treatment (m e d ia n); (e,g) in vivo caliper measurement of relative tum or volumes at final day of followup [last day when all mice in all groups remain in the study] […]
tumor weights at termination of study (only mice not terminated on ethical grounds before the indicated days were harvested); (i,j) Bodyweights (means).
(BxPC-3 study); dotted vertical lines indicate days of [potential] treatment.

[2] = test system: Balb/c mice with 4T1 tumors; test: 4T1-bearing tolerability study; conditions: 10 mg/kg
Source text: Finally, another large study intended for antitumor efficacy also had to be examined only in terms of tolerability.
(a,c, e, g, h): BxPC-3 subcutaneous xenograft in NMRi mice, 10 mice per group; ( b, d, f,i ,j): 4T1 murine breast cancer syngeneic orthotopic implant in Balb/c mice,
(a,b) Bodyweights (means); (c, d) absolute tumor volumes (medians); (e,f) tumor volumes relative to individual volumes at start of treatment (medians); (g,h,i ,j) absolute and relative tumor volumes at final day of study (datapoints with means and 95% confidence interval). All tumor measurements are in vivo caliper measurements. Dotted vertical lines indicate days of treatment. All CBI groups dosed at 3 mg/kg i. v., ca . 1 0 0 µL injection volume in vehicle (10:90 DMSO:saline).

[3] = test system: A549 cells; test: Resazurin cytotoxicity assay, A549, 72 h; conditions: read-out: IC50(nM): A549
Protocol: (§1) We used A549 lung cancer and HeLa cervical cancer cell lines for initial screening of the prodrugs.
Fi gure S9: Cell ular resazurin-based cytotoxi ci ty as s a y.
Dose -response curves were calculated from at least 27 incremental single concentrations over a range
of at least three log units. Individual experiments with annotated experiment numbers are shown for each prodrug

[4] = test system: Balb/c mice; test: Single-dose toxicity study; format: in vivo; conditions: week following treatment
Protocol: To test if low prodrug activation could enable in vivo use, we performed dosing and toxicity studies in Balb/c mice, comparing the toxicity and the tolerated dosing of low-reducible SS60-CBI-AZI or substantially reducible SeS60-CBI-AZI and to those of non-reducible carbamate O56-CBI-AZI. Single-dose toxicity was studied over the range 0.1–10 mg/kg.
Methods for in vivo animal studies
(§2) All in vivo studies were conducted as contract research together with React ionBiology Eur ope G mbH (Freiburg,
(§3) Germany), EPO – Experimental Pharmacology & Oncology GmbH (Berlin, Germany); Bient a/ Enam ine Lt d. (Kyiv,
(§4) Ukraine) and Leit at – Managing Technologies (Barcelona, Spain), adhering to the respective animal welfare
(§5) Mice were kept in individually ventilated cages at constant temperature (22±2 °C, air-conditioned) and humidity (45
(§6) – 65%), under optimum hygienic conditions with 10 – 15 air changes per hour. A cycle of 12 h artificial fluorescent
(§7) light ning and 12 h darkness was applied , and animal behavior was monitored daily throughout the studies. The
(§8) animals received food and water ad libit um.
(§9) To evaluate toxicity of selected compounds, dose level selection studies within dose range from 0.1 mg/kg to
10 mg/kg were performed by intravenous administration into Balb /c mice. […]
were monitored after each drug administration and three times per week for 21 consecutive days after the first […]

[5] = test system: NCI-60 standardized human tumor cell line panel; test: cells; format: cell-based; conditions: AZI sheet, read-out: GI50
[6] = test system: HeLa-HRE cells; test: Resazurin cytotoxicity assay, HeLa-HRE, 48 h; conditions: for IC50(HeLa)/IC50(A549): ratio HeLa vs A549
Protocol: as §1
HeLa-HRE cells were treated with prodrugs of the
Dose -response curves were calculated from at least 27 incremental single concentrations over a
range of at least three log units.

[7] = Cell-free HPLC reduction assay (GSH or TCEP challenge); conditions: 5 mM GSH (50 equiv), 24 h
Source text: These performance features had not been tested with naphthols, so we used HPLC to test them and show their reduction-based activation sequence (Figure 2c and Figures S4–S6).
In brief, treatment with the quantitative reductant TCEP triggered a reaction cascade matching the activation sequence we expected (Figure 2c): dichalcogenides are reduced to dichalcogenols that cyclize, giving the naphthol cargos (plus thiol trigger byproduct) that evolve to the activated cyclopropanes (Figure 5).
The mobile phase consists of eluent A: water (analytical
grade, 0.1% formic acid) and eluent B: MeCN (analytical grade, 0.1% formic acid).
using a gradient of 10% B t o 90% B over 10 min.
Reduction assay using TCEP and GSH
tris(2-carboxyethyl)phospine) (TCEP, 5 mM in TE-bu f f e r ) , or reduced glut at hione (GSH, 50 mM in TE-buf f er) or
else blank TE-buffer. Final concentrations: Prodrug (0.1 mM) , TCEP ( 0. 5 mM) , G SH ( 5 mM). The blank sample
was measured after 10 min (“pure”) and 24 h (“O H-“) to control for basic hydrolysis. The GSH sample was
measured after 24 h to control for monothiol-based reductive release. The TCEP sample was measured at several […]
extracted for each of the intermediate species and final r elease products. Peak areas were calculated relative to
the sum of all peak areas at 320 nm to quantify individual species at each timepoints. […]

[8] = test system: mouse; test: Tolerability for repeated dose administration in vivo (summary); conditions: repeated dose administration
[9] = test system: Balb/c mice; test: Moderate repeated dosing tolerability study; format: in vivo
Protocol: Next, a moderate repeated dosing study in Balb/c mice (3 animals per group) tested the importance of solubilizing the prodrugs.
Methods for in vivo animal studies
as §2, §3, §4, §5, §6, §7, §8, §9
10 mg/kg were performed by intravenous administration into Balb /c mice. Each dose for each tested compound
was administered in one mouse.
changes and clinical signs of gross toxicity three tim es per week for 21 consecutive days of post-dosing period.
After the first week of observation without adverse events, two doses for each test compound were selected as
tolerated. These two doses were tested in two additional mice for confirmation of toler ability. Additional animals
consecutive days of post-dosing period. Toxicity of repeated administrations was tested wit h t hr ee repeat ed pr e-
selected doses at a dosing interval of 7 days. Mortality, body weight changes, and clinical signs of gross toxicity
were monitored after each drug administration and three times per week for 21 consecutive days after the first
compound administration. Bleed ing with subsequent hematological tests, clinical chemistry parameters analysis
(ALT, AST, ALP, LDH, creatine kinase, creatinine, urea, cholesterol, and triglycerides), and necropsy with
macroscopic inspection were performed on the terminal day of the repeated dosing-regime.
To test tolerability of selected compounds in vivo, female BALB/c mice were randomized by weight into seven
groups of t hree animals.

[10] = In vivo plasma pharmacokinetics; conditions: Balb/c mice, i.v. 5 mg/kg
Protocol: We first examined the in vivo pharmacokinetics of representative compound SS60-CBI-AZI in Balb/c mice after i.v. administration at 5 mg/kg (3 animals per time point, 4 time points from 5 to 90 min post injection).
as §5, §6, §7, §8
Pharm acokinetics o f SS60-CBI-AZI
Following single dose intravenous administration, levels of SS60-CBI-AZI in blood plasm a over t im e wer e
det ermined by HPLC-MS/MS. Treatm ent gr oups wer e three Balb/c mice (randomly assigned ) per t ime point (t otal:
Blood collection was performed from the orbital sinus in
microtainers containing K 2EDTA. All samples were immediately processed, flash -frozen and stored at -70 °C unt il
400 ng/mL in et hanol). After mixing by pipetting and centrifuging for 4 min at 6000 rpm, 2 μL of each supernatant
was injected into LC-MS/MS (Shimadzu LC: 2 isocratic pumps LC-10ADvp, autosampler SIL-20AC, sub-controller
FCV-14AH, degasser DGU-14 A; AB Sciex MS: API 3000 ( tr iple-quadrupole), ESI). The data acquisition and system […]

[11] = read-out: IC50(nM): HeLa, HeLa, 48 h

## CCc1c2c(nc3ccc(OC(=O)N4CCC(N5CCCCC5)CC4)cc13)-c1cc3c(c(=O)n1C2)COC(=O)[C@]3(O)CC [irinotecan, reference compound]
[1]
  effect on tumor growth: expected tumor-slowing effect
[2]
  effect on tumor growth: failed to slow tumor growth

## O=C(c1cc2cc(OCCCN3CCC3)ccc2[nH]1)N1C[C@@H](CCl)c2c1cc(OCc1ccccc1)c1ccccc21 [OBn-CBI-AZI]
[3]
  IC50: 420 nM
[4]
  outcome at 10 mg/kg single dose: not lethal
[5]; 786-0
  GI50: 270 nM
[5]; A498
  GI50: 380 nM
[5]; A549/ATCC
  GI50: 160 nM
[5]; ACHN
  GI50: 35 nM
[5]; CAKI-1
  GI50: 190 nM
[5]; CCRF-CEM
  GI50: 410 nM
[5]; COLO 205
  GI50: 280 nM
[5]; EKVX
  GI50: 370 nM
[5]; HCC-2998
  GI50: 320 nM
[5]; HCT-15
  GI50: 130 nM
[5]; HCT-116
  GI50: 640 nM
[5]; HL-60(TB)
  GI50: 440 nM
[5]; HOP-62
  GI50: 140 nM
[5]; HOP-92
  GI50: 500 nM
[5]; HT29
  GI50: 270 nM
[5]; IGROV1
  GI50: 190 nM
[5]; K-562
  GI50: 250 nM
[5]; KM12
  GI50: 810 nM
[5]; LOX IMVI
  GI50: 56 nM
[5]; M14
  GI50: 210 nM
[5]; MALME-3M
  GI50: 280 nM
[5]; MDA-MB-231
  GI50: 3070 nM
[5]; MDA-MB-435
  GI50: 330 nM
[5]; MOLT-4
  GI50: 270 nM
[5]; NCI-H23
  GI50: 73 nM
[5]; NCI-H226
  GI50: 210 nM
[5]; NCI-H460
  GI50: 17 nM
[5]; NCI-H522
  GI50: 380 nM
[5]; OVCAR-3
  GI50: 500 nM
[5]; OVCAR-4
  GI50: 540 nM
[5]; OVCAR-5
  GI50: 340 nM
[5]; OVCAR-8
  GI50: 240 nM
[5]; RPMI-8226
  GI50: 500 nM
[5]; RXF 393
  GI50: 230 nM
[5]; SF-268
  GI50: 330 nM
[5]; SF-295
  GI50: 46 nM
[5]; SF-539
  GI50: 290 nM
[5]; SK-MEL-2
  GI50: 370 nM
[5]; SK-MEL-5
  GI50: 270 nM
[5]; SK-MEL-28
  GI50: 330 nM
[5]; SK-OV-3
  GI50: 450 nM
[5]; SN12C
  GI50: 360 nM
[5]; SNB-19
  GI50: 330 nM
[5]; SR
  GI50: 44 nM
[5]; SW-620
  GI50: 260 nM
[5]; TK-10
  GI50: 560 nM
[5]; U251
  GI50: 61 nM
[5]; UACC-62
  GI50: 62 nM
[5]; UACC-257
  GI50: 390 nM
[5]; UO-31
  GI50: 260 nM
[6]; initial screening, A549 and HeLa cell lines
  IC50: > 1000 nM
[6]
  IC50(HeLa)/IC50(A549): 1.8
[6]; [11]
  IC50: 750 nM

## CN1CCN(C(=O)Oc2cc3c(c4ccccc24)C(CCl)CN3C(=O)c2cc3cc(OCCCN4CCC4)ccc3[nH]2)C2CSSCC21 (mixture of isomers) [Me-SS66T-CBI-AZI]
[7]
  release/reduction on GSH challenge: partial reduction
[3]
  IC50: 51 nM
[5]; 786-0
  GI50: 13 nM
[5]; A498
  GI50: 15 nM
[5]; A549/ATCC
  GI50: 1.8 nM
[5]; ACHN
  GI50: 2.4 nM
[5]; BT-549
  GI50: 21 nM
[5]; CAKI-1
  GI50: 2.8 nM
[5]; CCRF-CEM
  GI50: 7.4 nM
[5]; COLO 205
  GI50: 15 nM
[5]; DU-145
  GI50: 3.9 nM
[5]; EKVX
  GI50: 12 nM
[5]; HCC-2998
  GI50: 3.5 nM
[5]; HCT-15
  GI50: 3.8 nM
[5]; HCT-116
  GI50: 6.8 nM
[5]; HL-60(TB)
  GI50: 9.9 nM
[5]; HOP-62
  GI50: 5.2 nM
[5]; HOP-92
  GI50: 18 nM
[5]; HT29
  GI50: 8.3 nM
[5]; IGROV1
  GI50: 17 nM
[5]; K-562
  GI50: 4.4 nM
[5]; KM12
  GI50: 16 nM
[5]; LOX IMVI
  GI50: 2.2 nM
[5]; M14
  GI50: 5.6 nM
[5]; MALME-3M
  GI50: 6.4 nM
[5]; MDA-MB-231
  GI50: 19.2 nM
[5]; MDA-MB-435
  GI50: 13 nM
[5]; MDA-MB-468
  GI50: 2.6 nM
[5]; MOLT-4
  GI50: 4.5 nM
[5]; NCI-H23
  GI50: 1.7 nM
[5]; NCI-H226
  GI50: 3.4 nM
[5]; NCI-H522
  GI50: 11 nM
[5]; OVCAR-3
  GI50: 27 nM
[5]; OVCAR-4
  GI50: 28 nM
[5]; OVCAR-5
  GI50: 6.9 nM
[5]; OVCAR-8
  GI50: 3.3 nM
[5]; PC-3
  GI50: 19.7 nM
[5]; RPMI-8226
  GI50: 23 nM
[5]; RXF 393
  GI50: 5.7 nM
[5]; SF-268
  GI50: 9 nM
[5]; SF-295
  GI50: 2.2 nM
[5]; SF-539
  GI50: 5.2 nM
[5]; SK-MEL-2
  GI50: 19 nM
[5]; SK-MEL-5
  GI50: 2.3 nM
[5]; SK-MEL-28
  GI50: 4.8 nM
[5]; SK-OV-3
  GI50: 15 nM
[5]; SN12C
  GI50: 10 nM
[5]; SNB-19
  GI50: 5.8 nM
[5]; SR
  GI50: 1.7 nM
[5]; SW-620
  GI50: 2.3 nM
[5]; T-47D
  GI50: 15 nM
[5]; TK-10
  GI50: 22 nM
[5]; U251
  GI50: 1.6 nM
[5]; UACC-62
  GI50: 2.2 nM
[5]; UACC-257
  GI50: 15 nM
[5]; UO-31
  GI50: 3.8 nM
[6]
  IC50(HeLa)/IC50(A549): 1.0
[6]; [11]
  IC50: 49 nM

## CN(C(=O)Oc1cc2c(c3ccccc13)[C@H](CCl)CN2C(=O)c1cc2cc(OCCCN3CCC3)ccc2[nH]1)[C@H]1CCSSC1 [SS60-CBI-AZI]
[8]
  remarks: adverse effects
[3]; Homo sapiens
  IC50: 120 nM
[9]; once weekly
  outcome of repeated dosing at 3 mg/kg: significant loss of body weight
[9]; treated twice a week
  outcome of repeated dosing at 1 mg/kg: tolerated
[6]; Homo sapiens, HeLa, 48 h, read-out: IC50(nM): HeLa
  IC50: 96 nM
[6]
  IC50(HeLa)/IC50(A549): 0.8
[10]
  released cargo in plasma: no released HO-CBI-AZI, or activated cyclopropane, or adducts, were detected
[10]; mouse, plasma, iv, HPLC-MS/MS
  half-life: ~20 min
